Assay results taken from ChEMBL document CHEMBL5465560, “Selectivity Literature for EUbOPEN Chemogenomic Library” (2024).
Each block holds one compound with its values, some of them ahead of it.

Experiments:
[1] = biological target: T1, 5-hydroxytryptamine receptor 3A (Homo sapiens) (UniProt P46098); assay: Selectivity interaction (Panel of kinases, GPCRs, ion channels and transporters (enzymatic assay)) EUB0000266bCl HTR3A
T1 sequence (whole entry): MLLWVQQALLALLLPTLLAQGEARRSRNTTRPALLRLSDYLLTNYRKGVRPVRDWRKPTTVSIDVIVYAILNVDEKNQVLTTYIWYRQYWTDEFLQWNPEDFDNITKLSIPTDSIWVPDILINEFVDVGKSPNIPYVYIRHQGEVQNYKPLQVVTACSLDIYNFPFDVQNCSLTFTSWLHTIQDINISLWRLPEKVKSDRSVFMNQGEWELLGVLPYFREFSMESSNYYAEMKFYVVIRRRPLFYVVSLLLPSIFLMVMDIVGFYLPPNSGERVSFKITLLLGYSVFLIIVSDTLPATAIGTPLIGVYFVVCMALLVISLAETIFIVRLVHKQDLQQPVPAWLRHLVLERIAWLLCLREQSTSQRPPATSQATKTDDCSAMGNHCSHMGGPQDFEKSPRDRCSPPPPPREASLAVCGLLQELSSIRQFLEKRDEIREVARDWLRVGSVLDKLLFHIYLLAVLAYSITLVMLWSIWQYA

SRSF protein kinase 1 = SRSF protein kinase 1 (Homo sapiens, UniProt Q96SB4); assay: Selectivity interaction (Ambit KINOMEscan and KiNATiv profiling in Jurkat cells) EUB0000090b SRPK1; assay type: cell-based; settings: at 1 µM
[2] = biological target: Cyclin-dependent kinase 8 (Homo sapiens, UniProt P49336); assay: Selectivity interaction (Kinase panel (Invitrogen)) EUB0000639a CDK8; settings: at 200 nM
[3] = biological target: Ribosomal protein S6 kinase alpha-3 (Homo sapiens, UniProt P51812); assay: Selectivity interaction (ActivX KiNativ screen (kinase selectivity in THP-1 cell lysates)) EUB0000639a RPS6KA3; assay type: subcellular; settings: lysate
[4] = system: Phosphatidylinositol 4,5-bisphosphate 3-kinase catalytic subunit alpha isoform (Homo sapiens), P42336 [I800L]; settings: at 10 µM
[5] = biological target: Mitogen-activated protein kinase 9 (Homo sapiens, UniProt P45984); assay: Selectivity interaction (Kinase panel (enzymatic assay)) EUB0000595a MAPK9
[6] = biological target: Tyrosine-protein kinase Fgr (Homo sapiens) (UniProt P09769); assay: Selectivity interaction (ProQinase) EUB0000171b FGR
[7] = biological target: Insulin receptor-related protein (Homo sapiens) (UniProt P14616); assay: Selectivity interaction (KinomeScan (DiscoverX)) EUB0000092b INSRR; settings: at 10 µM
[8] = biological target: Macrophage colony-stimulating factor 1 receptor (Homo sapiens) (UniProt P07333); assay: Selectivity interaction (Upstate Kinase Profiler service (Millipore)) EUB0000056c CSF1R; settings: at 1 µM
[9] = biological target: Serine/threonine-protein kinase Nek4 (Homo sapiens) (UniProt P51957); assay: Selectivity interaction (KinomeScan (DiscoverX)) EUB0000045b NEK4
[10] = biological target: Serine/threonine-protein kinase PAK 4 (Homo sapiens, UniProt O96013); assay: Selectivity interaction (KinomeScan (DiscoverX)) EUB0000045b PAK4
[11] = biological target: T2, Serine/threonine-protein kinase Nek1 (Homo sapiens) (UniProt Q96PY6); assay: Selectivity interaction (KinomeScan (DiscoverX)) EUB0001619a NEK1; settings: at 1 µM
T2 sequence (whole entry): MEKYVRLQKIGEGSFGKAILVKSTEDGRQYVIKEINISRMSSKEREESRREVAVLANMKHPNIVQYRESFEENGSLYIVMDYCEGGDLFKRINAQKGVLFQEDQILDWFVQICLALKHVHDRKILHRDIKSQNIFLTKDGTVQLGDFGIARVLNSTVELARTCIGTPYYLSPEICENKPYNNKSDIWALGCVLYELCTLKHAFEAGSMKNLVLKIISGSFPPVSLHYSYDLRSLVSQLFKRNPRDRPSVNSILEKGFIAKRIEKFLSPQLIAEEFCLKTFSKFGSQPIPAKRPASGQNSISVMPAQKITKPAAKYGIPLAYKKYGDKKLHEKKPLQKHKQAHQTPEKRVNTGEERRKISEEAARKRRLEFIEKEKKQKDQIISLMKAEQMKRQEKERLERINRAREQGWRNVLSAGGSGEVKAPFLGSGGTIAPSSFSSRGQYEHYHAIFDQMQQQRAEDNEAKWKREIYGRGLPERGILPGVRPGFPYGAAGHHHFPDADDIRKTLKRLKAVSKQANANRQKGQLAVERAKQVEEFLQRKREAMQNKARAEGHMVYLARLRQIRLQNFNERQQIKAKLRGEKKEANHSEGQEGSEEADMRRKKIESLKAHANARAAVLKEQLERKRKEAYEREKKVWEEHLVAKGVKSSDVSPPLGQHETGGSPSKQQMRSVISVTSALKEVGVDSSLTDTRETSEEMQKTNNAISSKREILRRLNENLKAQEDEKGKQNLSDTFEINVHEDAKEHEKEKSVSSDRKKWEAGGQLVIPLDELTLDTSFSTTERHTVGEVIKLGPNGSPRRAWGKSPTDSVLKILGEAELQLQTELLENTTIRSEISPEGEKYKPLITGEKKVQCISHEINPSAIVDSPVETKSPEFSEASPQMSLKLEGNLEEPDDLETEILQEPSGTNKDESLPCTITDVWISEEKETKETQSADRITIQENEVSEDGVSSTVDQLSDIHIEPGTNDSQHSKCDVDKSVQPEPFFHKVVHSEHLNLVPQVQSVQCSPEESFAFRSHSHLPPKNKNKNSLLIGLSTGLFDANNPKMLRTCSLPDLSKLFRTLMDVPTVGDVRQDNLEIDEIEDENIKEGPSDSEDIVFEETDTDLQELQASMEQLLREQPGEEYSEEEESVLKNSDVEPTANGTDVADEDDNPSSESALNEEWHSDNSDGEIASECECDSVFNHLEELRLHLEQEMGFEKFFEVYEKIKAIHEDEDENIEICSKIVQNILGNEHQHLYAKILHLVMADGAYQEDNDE

Chain of Ribosomal protein S6 kinase alpha-3 (P51812 whole entry, canonical isoform): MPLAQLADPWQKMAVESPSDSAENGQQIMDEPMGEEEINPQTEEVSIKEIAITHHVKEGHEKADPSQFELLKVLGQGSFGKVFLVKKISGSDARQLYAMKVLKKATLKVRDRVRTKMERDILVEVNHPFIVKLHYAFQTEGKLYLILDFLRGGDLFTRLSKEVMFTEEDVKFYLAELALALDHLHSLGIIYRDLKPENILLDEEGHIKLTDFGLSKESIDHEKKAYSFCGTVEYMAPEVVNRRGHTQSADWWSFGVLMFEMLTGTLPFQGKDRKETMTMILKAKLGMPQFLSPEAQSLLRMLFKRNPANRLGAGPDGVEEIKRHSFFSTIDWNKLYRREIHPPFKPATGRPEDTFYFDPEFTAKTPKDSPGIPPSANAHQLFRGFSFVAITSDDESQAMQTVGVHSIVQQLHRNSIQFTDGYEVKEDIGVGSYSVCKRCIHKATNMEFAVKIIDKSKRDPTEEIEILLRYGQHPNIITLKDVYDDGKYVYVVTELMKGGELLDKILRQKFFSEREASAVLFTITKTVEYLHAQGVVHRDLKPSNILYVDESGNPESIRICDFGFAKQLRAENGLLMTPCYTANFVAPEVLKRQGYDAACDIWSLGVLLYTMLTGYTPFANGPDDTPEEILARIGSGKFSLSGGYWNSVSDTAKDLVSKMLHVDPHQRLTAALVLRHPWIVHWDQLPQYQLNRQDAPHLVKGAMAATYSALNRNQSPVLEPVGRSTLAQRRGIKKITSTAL
Chain of Tyrosine-protein kinase Fgr (Homo sapiens) (P09769 2-529 limits assumed): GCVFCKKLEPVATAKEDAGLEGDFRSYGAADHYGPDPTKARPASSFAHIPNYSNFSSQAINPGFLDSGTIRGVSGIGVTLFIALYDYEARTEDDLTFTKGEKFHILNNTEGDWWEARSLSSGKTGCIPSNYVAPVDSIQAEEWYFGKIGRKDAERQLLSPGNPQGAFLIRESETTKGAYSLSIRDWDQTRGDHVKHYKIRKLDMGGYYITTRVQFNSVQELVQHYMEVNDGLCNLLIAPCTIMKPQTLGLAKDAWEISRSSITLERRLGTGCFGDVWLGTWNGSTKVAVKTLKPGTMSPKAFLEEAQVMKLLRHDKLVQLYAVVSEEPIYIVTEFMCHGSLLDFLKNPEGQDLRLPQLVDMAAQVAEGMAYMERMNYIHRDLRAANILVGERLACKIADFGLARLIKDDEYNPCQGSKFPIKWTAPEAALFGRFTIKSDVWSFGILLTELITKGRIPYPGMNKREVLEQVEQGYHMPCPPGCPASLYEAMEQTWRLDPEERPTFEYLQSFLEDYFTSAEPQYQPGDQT
Chain of Serine/threonine-protein kinase Nek4 (Homo sapiens) (P51957 whole entry, looked up): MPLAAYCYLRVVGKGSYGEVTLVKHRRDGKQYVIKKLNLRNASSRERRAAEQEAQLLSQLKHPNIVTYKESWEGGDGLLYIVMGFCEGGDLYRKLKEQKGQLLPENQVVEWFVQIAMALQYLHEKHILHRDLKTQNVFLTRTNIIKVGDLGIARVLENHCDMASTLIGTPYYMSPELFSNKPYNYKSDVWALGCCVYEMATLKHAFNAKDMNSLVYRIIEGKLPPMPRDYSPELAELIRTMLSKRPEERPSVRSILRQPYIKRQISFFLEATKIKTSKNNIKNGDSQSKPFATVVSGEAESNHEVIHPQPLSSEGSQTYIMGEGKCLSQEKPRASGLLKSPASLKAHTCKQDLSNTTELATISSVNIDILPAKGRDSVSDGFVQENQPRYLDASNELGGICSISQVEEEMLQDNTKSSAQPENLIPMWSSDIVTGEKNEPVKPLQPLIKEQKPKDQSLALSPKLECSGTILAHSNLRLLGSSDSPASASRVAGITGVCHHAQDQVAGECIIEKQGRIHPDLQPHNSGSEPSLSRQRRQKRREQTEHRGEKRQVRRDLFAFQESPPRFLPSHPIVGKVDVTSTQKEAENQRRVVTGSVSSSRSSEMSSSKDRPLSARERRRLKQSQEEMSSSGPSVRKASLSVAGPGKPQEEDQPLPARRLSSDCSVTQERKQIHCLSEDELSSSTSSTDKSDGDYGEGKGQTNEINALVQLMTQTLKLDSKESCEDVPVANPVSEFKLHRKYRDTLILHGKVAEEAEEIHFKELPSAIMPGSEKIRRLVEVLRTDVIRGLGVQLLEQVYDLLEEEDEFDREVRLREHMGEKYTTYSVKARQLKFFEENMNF
Chain of Serine/threonine-protein kinase PAK 4 (O96013 whole entry, looked up): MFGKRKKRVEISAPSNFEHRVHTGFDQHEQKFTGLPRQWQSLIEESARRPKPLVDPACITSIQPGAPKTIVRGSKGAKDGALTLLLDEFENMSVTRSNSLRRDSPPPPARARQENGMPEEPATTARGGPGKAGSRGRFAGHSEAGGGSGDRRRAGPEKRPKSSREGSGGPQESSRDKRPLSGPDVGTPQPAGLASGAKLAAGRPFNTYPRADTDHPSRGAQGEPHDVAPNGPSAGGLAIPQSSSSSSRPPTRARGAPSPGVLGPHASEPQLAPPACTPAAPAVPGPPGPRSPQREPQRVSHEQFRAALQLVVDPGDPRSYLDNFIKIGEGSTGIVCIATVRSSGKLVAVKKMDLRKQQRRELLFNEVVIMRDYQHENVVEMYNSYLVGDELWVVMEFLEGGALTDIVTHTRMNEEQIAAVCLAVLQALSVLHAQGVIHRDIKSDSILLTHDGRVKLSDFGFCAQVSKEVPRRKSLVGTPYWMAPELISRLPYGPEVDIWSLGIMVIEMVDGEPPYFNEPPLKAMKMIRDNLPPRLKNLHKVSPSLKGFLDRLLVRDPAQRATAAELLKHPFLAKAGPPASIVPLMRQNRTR
Chain of Phosphatidylinositol 4,5-bisphosphate 3-kinase catalytic subunit alpha isoform (Homo sapiens), P42336 [I800L] (P42336 whole entry I800L, canonical isoform): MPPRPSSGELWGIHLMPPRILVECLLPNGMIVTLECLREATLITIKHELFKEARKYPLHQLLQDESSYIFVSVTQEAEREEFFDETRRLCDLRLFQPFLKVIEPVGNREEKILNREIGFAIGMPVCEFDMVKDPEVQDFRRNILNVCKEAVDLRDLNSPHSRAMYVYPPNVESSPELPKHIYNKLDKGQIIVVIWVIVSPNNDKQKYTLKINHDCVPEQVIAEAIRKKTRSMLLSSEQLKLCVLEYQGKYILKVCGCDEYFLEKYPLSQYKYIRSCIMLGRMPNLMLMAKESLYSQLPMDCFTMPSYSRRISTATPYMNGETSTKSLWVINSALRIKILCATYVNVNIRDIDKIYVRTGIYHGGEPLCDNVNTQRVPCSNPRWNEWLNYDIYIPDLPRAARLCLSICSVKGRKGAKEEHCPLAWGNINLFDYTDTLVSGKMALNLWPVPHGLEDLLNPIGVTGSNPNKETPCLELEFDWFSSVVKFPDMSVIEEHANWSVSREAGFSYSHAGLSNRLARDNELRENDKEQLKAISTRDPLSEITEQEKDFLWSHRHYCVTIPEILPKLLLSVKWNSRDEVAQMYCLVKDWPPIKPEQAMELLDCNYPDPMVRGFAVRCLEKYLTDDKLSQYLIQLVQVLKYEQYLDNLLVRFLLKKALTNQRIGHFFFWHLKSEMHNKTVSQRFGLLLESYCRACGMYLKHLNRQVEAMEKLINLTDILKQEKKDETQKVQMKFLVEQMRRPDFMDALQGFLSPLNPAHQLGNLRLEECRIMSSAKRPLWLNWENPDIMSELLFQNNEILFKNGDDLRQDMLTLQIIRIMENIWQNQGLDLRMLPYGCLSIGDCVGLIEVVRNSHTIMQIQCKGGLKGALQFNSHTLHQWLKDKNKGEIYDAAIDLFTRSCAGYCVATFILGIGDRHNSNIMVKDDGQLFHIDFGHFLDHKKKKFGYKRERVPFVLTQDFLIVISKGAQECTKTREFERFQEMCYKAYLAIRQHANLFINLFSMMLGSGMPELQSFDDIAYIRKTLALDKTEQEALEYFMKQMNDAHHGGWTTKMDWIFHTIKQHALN
Chain of SRSF protein kinase 1 (Q96SB4 whole entry): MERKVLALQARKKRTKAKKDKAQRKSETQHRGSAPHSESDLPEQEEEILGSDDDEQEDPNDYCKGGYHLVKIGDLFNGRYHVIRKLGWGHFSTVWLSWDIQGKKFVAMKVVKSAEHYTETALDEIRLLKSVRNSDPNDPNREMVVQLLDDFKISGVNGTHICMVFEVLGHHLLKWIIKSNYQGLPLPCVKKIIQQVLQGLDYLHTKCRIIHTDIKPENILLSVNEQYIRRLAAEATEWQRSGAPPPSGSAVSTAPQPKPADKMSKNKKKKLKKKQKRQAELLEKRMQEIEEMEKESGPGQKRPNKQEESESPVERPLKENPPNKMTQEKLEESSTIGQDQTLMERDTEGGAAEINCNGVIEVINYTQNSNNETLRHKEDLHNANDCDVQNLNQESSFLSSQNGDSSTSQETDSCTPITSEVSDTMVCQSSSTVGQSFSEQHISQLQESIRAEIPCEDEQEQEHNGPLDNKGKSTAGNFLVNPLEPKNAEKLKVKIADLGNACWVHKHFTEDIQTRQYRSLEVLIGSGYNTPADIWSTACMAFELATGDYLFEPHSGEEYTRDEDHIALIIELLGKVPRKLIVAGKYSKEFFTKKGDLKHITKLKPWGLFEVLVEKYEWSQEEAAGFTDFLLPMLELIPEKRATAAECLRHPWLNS
Chain of Cyclin-dependent kinase 8 (P49336 whole entry): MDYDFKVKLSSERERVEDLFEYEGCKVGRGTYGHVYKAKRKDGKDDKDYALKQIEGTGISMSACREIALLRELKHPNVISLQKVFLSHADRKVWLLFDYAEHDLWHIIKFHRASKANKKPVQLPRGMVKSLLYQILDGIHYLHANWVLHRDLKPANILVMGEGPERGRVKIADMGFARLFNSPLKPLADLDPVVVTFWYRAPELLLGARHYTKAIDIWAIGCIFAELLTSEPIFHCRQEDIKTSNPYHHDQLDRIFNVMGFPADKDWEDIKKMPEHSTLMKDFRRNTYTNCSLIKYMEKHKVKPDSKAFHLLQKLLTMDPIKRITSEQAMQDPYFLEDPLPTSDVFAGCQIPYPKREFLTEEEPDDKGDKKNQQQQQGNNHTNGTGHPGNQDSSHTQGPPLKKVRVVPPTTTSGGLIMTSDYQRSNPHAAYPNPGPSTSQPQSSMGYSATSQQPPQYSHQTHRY

pXC50 [1]: 5.6 M
SMILES: CCn1c(-c2nc3cc(C(=O)N4CCCC(N)C4)ccc3n2C)cc2ccccc21 (centres undefined)

SMILES: CN(C)C/C=C/C(=O)Nc1ccc(C(=O)N2CCCC(Nc3ncc(Cl)c(-c4c[nH]c5ccccc45)n3)C2)cc1 (centres undefined)
% of control (SRSF protein kinase 1): 52%

% of inhibition [2]: 40.1%
% of inhibition ([3]; at 0.01 µM): 16.9%
% of inhibition ([3]; at 0.04 µM): 12.4%
% of inhibition ([3]; at 0.2 µM): 10.3%
% of inhibition ([3]; at 1 µM): 8.6%
% of inhibition ([3]; at 5 µM): 11.7%
SMILES: CC[C@@H]1[C@H](F)C(=O)N[C@@H]1COc1nccc2cc(C(N)=O)c(OC)cc12 [ZIMLOVISERTIB]

SMILES: COCC(=O)NC/C=C/c1ccc2ncnc(Nc3ccc(Oc4ccc(C)nc4)c(C)c3)c2c1 [CP-724714]
% of control [4]: 100%
IC50 [5]: > 10 µM

% of control ([6]; at 1 µM): 87%
% of control ([6]; at 5 µM): 79%
SMILES: C=CC(=O)Nc1cccc(C(=O)Nc2ccc(Nc3cc(-c4[nH]c(SC)nc4C)ccn3)cc2)c1

SMILES: CCC(=O)N1CCN(c2ccc(-n3c(=O)ccc4cnc5ccc(-c6cnc7ccccc7c6)cc5c43)cc2C(F)(F)F)CC1
% of control [7]: 100%

% of inhibition [8]: 13%
SMILES: Cc1ccc(-c2ccc3c(ccc4sc5c(c43)NC[C@@H](C)NC5=O)n2)cn1

SMILES: C=CC(=O)Nc1cc(-n2c(=O)ccc3cnc4ccc(-c5ccc(NS(C)(=O)=O)cc5)cc4c32)ccc1C
% of control ([9]; at 1 µM): 81%
% of control ([9]; at 10 µM): 100%
% of control ([10]; at 1 µM): 100%
% of control ([10]; at 10 µM): 100%

SMILES: N#Cc1cccc(-c2c[nH]c3ncnc(N4CCOCC4)c23)c1
% of control [11]: 100%
